Source: ChEMBL document CHEMBL1122199, “Structure-activity relationships in potentially hallucinogenic N,N-dialkyltryptamines substituted in the benzene moiety” (J Med Chem, 1982)
Several values for one entry are separate records, joined by “and”; a condition that tells them apart may be missing. Equal entries are not always repeated.

Assays:
Rattus norvegicus [1] = test: The behavior disruption data as percent change in response from drug versus saline at dose 0.25mg/Kg, expressed as E (efficient); format: functional
Rattus norvegicus [2] = test: The behavior disruption data as percent change in response from drug versus saline at dose 2mg/kg, expressed as B/P (burst/premature).; format: functional
Rattus norvegicus [3] = test: The behavior disruption data as percent change in response from drug versus saline at dose 2mg/Kg, expressed as L (Late).; format: functional
Rattus norvegicus [4] = test: The behavior disruption data as percent change in response from drug versus saline at dose 1 mg/kg, expressed as B/P (burst/premature).; format: functional
Rattus norvegicus [5] = test: The behavior disruption data as percent change in response from drug versus saline at dose 0.5 mg/Kg, expressed as L (Late).; format: functional
Rattus norvegicus [6] = test: The behavior disruption data as percent change in response from drug versus saline at dose 0.5 mg/kg, expressed as B/P (burst/premature).; format: functional
Rattus norvegicus [7] = test: The behavior disruption data as percent change in response from drug versus saline at dose 2mg/Kg, expressed as E (efficient); format: functional
Rattus norvegicus [8] = test: The behavior disruption data as percent change in response from drug versus saline at dose 0.25mg/Kg, expressed as L (Late).; format: functional
Rattus norvegicus [9] = test: The behavior disruption data as percent change in response from drug versus saline at dose 0.25 mg/kg, expressed as B/P (burst/premature).; format: functional
Rattus norvegicus [10] = test: The behavior disruption data as percent change in response from drug versus saline at dose 1mg/Kg, expressed as E (efficient); format: functional
Rattus norvegicus [11] = test: The behavior disruption data as percent change in response from drug versus saline at dose 0.5 mg/Kg, expressed as E (efficient); format: functional
Rattus norvegicus [12] = test: The behavior disruption data as percent change in response from drug versus saline at dose 1mg/Kg, expressed as L (Late).; format: functional
Rattus norvegicus [13] = test: The behavior disruption data as percent change in response from drug versus saline at dose 2.5 mg/kg, expressed as B/P (burst/premature).; format: functional
[14] = target: Serotonin (5-HT) receptor; test: Ability to displace [3H]5-HT binding from 5-hydroxytryptamine receptor site using 1 uM LSD as masking ligand; format: protein assay, Cavia porcellus
Rattus norvegicus [15] = test: The behavior disruption data as percent change in response from drug versus saline at dose 10 mg/kg, expressed as B/P (burst/premature).; format: functional
Rattus norvegicus [16] = test: The behavior disruption data as percent change in response from drug versus saline at dose 5mg/Kg, expressed as E (efficient); format: functional
Rattus norvegicus [17] = test: The behavior disruption data as percent change in response from drug versus saline at dose 10mg/Kg, expressed as L (Late).; format: functional
Rattus norvegicus [18] = test: The behavior disruption data as percent change in response from drug versus saline at dose 10mg/Kg, expressed as E (efficient); format: functional
Rattus norvegicus [19] = test: The behavior disruption data as percent change in response from drug versus saline at dose 1.25mg/Kg, expressed as E (efficient); format: functional
Rattus norvegicus [20] = test: The behavior disruption data as percent change in response from drug versus saline at dose 1.25 mg/kg, expressed as B/P (burst/premature).; format: functional
Rattus norvegicus [21] = test: The behavior disruption data as percent change in response from drug versus saline at dose 5 mg/kg, expressed as B/P (burst/premature).; format: functional
Rattus norvegicus [22] = test: The behavior disruption data as percent change in response from drug versus saline at dose 5mg/Kg, expressed as L (Late).; format: functional
Rattus norvegicus [23] = test: The behavior disruption data as percent change in response from drug versus saline at dose 2.5mg/Kg, expressed as L (Late).; format: functional
Rattus norvegicus [24] = test: The behavior disruption data as percent change in response from drug versus saline at dose 1.25mg/Kg, expressed as L (Late).; format: functional
[25] = Hill coefficient of the compound
Rattus norvegicus [26] = test: The behavior disruption data as percent change in response from drug versus saline at dose 2.5mg/Kg, expressed as E (efficient); format: functional
[27] = Ability to displace [3H]LSD binding to Lysergic acid diethylamide receptor site using 1 uM 5-HT as masking ligand; set-up: species or system Cavia porcellus
[28] = target: Serotonin (5-HT) receptor; test: Ability to displace [3H]5-HT binding to 5-hydroxytryptamine receptor site using 1 uM LSD as masking ligand; format: protein assay, Cavia porcellus
Rattus norvegicus [29] = test: The behavior disruption data as percent change in response from drug versus saline at dose 4 mg/kg, expressed as B/P (burst/premature).; format: functional
Rattus norvegicus [30] = test: The behavior disruption data as percent change in response from drug versus saline at dose 8mg/Kg, expressed as E (efficient); format: functional
Rattus norvegicus [31] = test: The behavior disruption data was measured as percent change in response from drug versus saline at dose 2 mg/kg, activity expressed as L (Late).; format: functional
Rattus norvegicus [32] = test: The behavior disruption data as percent change in response from drug versus saline at dose 4mg/Kg, expressed as E (efficient); format: functional
Rattus norvegicus [33] = test: The behavior disruption data as percent change in response from drug versus saline at dose 8mg/Kg, expressed as L (Late).; format: functional
Rattus norvegicus [34] = test: The behavior disruption data as percent change in response from drug versus saline at dose 8 mg/kg, expressed as B/P (burst/premature).; format: functional
Rattus norvegicus [35] = test: The behavior disruption data as percent change in response from drug versus saline at dose 4mg/Kg, expressed as L (Late).; format: functional
Rattus norvegicus [36] = test: The behavior disruption data as percent change in response from drug versus saline at dose 15mg/Kg, expressed as L (Late).; format: functional
Rattus norvegicus [37] = test: The behavior disruption data as percent change in response from drug versus saline at dose 15 mg/kg, expressed as B/P (burst/premature).; format: functional
Rattus norvegicus [38] = test: The behavior disruption data as percent change in response from drug versus saline at dose 15mg/Kg, expressed as E (efficient); format: functional

Row | Structure (SMILES) | Change in response (Rattus norvegicus [2]) [%] | Change in response (Rattus norvegicus [3]) [%] | Change in response (Rattus norvegicus [4]) [%] | Change in response (Rattus norvegicus [5]) [%] | Change in response (Rattus norvegicus [6]) [%] | Change in response (Rattus norvegicus [7]) [%] | Change in response (Rattus norvegicus [10]) [%] | Change in response (Rattus norvegicus [11]) [%] | Change in response (Rattus norvegicus [12]) [%] | Change in response (Rattus norvegicus [16]) [%] | Change in response (Rattus norvegicus [21]) [%] | Change in response (Rattus norvegicus [22]) [%] | Hill coefficient [25] | IC50 [27] [M l-1] | IC50 [28] [M l-1] | also measured
1 | CN(C)CCc1c[nH]c2ccc3c(c12)OCO3 | 11 | 20 | 5 | 5 | 0 | 31 | 10 | 5 | 5 | – | – | – | – | – | – | Change in response (Rattus norvegicus [1]): 3%; Change in response (Rattus norvegicus [8]): 5%; Change in response (Rattus norvegicus [9]): 3%
2 | CC(C)N(CCc1c[nH]c2cc3c(cc12)OCO3)C(C)C | – | – | – | – | – | – | – | – | – | 4 | 2 | 2 | 0.642 | 0.00001 | – | Change in response (Rattus norvegicus [13]): 0%; IC50 [14]: 0.000933 M l-1; Change in response (Rattus norvegicus [15]): 29%; Change in response (Rattus norvegicus [17]): 16%; Change in response (Rattus norvegicus [18]): 45%; Change in response (Rattus norvegicus [19]): 0%; Change in response (Rattus norvegicus [20]): 1%; Change in response (Rattus norvegicus [23]): 2%; Change in response (Rattus norvegicus [24]): 1%; Change in response (Rattus norvegicus [26]): 2%
3 | COc1ccc2[nH]cc(CCN(C)C)c2c1 [MEBUFOTENIN] | 19 | 9 | 6 | – | – | 26 | 11 | – | 5 | – | – | – | – | – | – | –
4 | CSc1cccc2[nH]cc(CCN(C)C)c12 | 8 | – | 0 | – | – | 11 | 1 | – | 1 | – | – | – | 0.75 and 1.01 | 0.0000125 | 0.000151 | Change in response (Rattus norvegicus [29]): 20%; Change in response (Rattus norvegicus [30]): 52%; Change in response (Rattus norvegicus [31]): 3%; Change in response (Rattus norvegicus [32]): 27%; Change in response (Rattus norvegicus [33]): 15%; Change in response (Rattus norvegicus [34]): 36%; Change in response (Rattus norvegicus [35]): 6%
5 | CSc1cccc2[nH]cc(CCN(C(C)C)C(C)C)c12 | – | – | – | – | – | – | – | – | – | 5 | 1 | 4 | 0.7 | – | – | Change in response (Rattus norvegicus [15]): 23%; Change in response (Rattus norvegicus [17]): 9%; Change in response (Rattus norvegicus [18]): 32%
6 | CC(C)N(CCc1c[nH]c2ccc3c(c12)OCO3)C(C)C | – | – | – | – | – | – | – | – | – | – | – | – | 0.343 | 2.88e-6 | 2.24e-6 | Change in response (Rattus norvegicus [13]): 38%; Change in response (Rattus norvegicus [19]): 28%; Change in response (Rattus norvegicus [20]): 24%; Change in response (Rattus norvegicus [23]): 11%; Change in response (Rattus norvegicus [24]): 74%; Change in response (Rattus norvegicus [26]): 49%
7 | CN(C)CCc1c[nH]c2cc3c(cc12)OCO3 | – | – | – | – | – | – | – | – | – | 11 | 9 | 2 | 0.95 and 1.01 | 1.78e-6 | 0.0000407 | Change in response (Rattus norvegicus [15]): 19%; Change in response (Rattus norvegicus [17]): 9%; Change in response (Rattus norvegicus [18]): 26%; Change in response (Rattus norvegicus [36]): 19%; Change in response (Rattus norvegicus [37]): 22%; Change in response (Rattus norvegicus [38]): 41%
8 | COc1ccc2c(CCN(C)C)c[nH]c2c1 | – | – | – | – | – | – | – | – | – | 50 | 29 | 21 | – | – | – | Change in response (Rattus norvegicus [13]): 26%; Change in response (Rattus norvegicus [19]): 21%; Change in response (Rattus norvegicus [20]): 25%; Change in response (Rattus norvegicus [23]): 8%; Change in response (Rattus norvegicus [24]): 5%; Change in response (Rattus norvegicus [26]): 34%
9 | COc1cccc2[nH]cc(CCN(C)C)c12 | 10 | 7 | 9 | 2 | 0 | 27 | 25 | 2 | 6 | – | – | – | – | – | – | –
10 | CSc1ccc2c(CCN(C)C)c[nH]c2c1 | 20 | 19 | 8 | 4 | 4 | 30 | 13 | 8 | 4 | – | – | – | 0.97 and 0.57 | 7.59e-6 | 0.0000408 | Change in response (Rattus norvegicus [29]): 34%; Change in response (Rattus norvegicus [32]): 48%; Change in response (Rattus norvegicus [35]): 14%
11 | CSc1ccc2[nH]cc(CCN(C)C)c2c1 | – | – | 16 | 7 | 13 | – | 65 | 26 | 49 | – | – | – | 0.91 and 0.995 | 1.44e-7 | – | IC50 [14]: 1e-6 M l-1
